In paper PMC8556085, “Antimicrobial and Antioxidant Secondary Metabolites from Trifolium baccarinii Chiov. (Fabaceae) and Their Mechanisms of Antibacterial Action” (BioMed Research International, 2021):
In brackets after ≈: the same amount, converted by molar mass. Marks after values point to notes of the source that are not given here.

How the values were obtained:
[1] = DPPH free radical scavenging assay; settings: mean ± SD
Procedure: The free radical scavenging activity of extracts and compounds was evaluated according to the described method. The EC50 (μg/mL), which is the amount of sample necessary to inhibit by 50% the absorbance of free radical DPPH, was calculated. Vitamin C was used as a standard control. All the analyses were carried out in triplicate and repeated three times.

[2] = Gallic acid equivalent antioxidant capacity (GEAC) assay; settings: ABTS radical, 420 nm, 240 s; mean ± SD
Procedure: The GEAC test was performed as described previously with some slight modifications. The laccase was purified from Sclerotinia sclerotiorum according to the described protocol. 20 μL of laccase (1 mM stock solution), 20 μL of test sample, 10 μL of ABTS (2,2′-azino-bis(3-ethylbenzothiazoline-6-sulfonic acid) (74 mM stock solution), and 950 μL of acetate buffer (pH = 5.0, 100 mM) were added in a quartz cuvette. The concentrations of the samples in the assay mixture were 800, 400, 200, 100, and 10 μg/mL for the extracts and 200, 100, 50, 25, and 12.5 μg/mL for the isolated compounds. The content of the generated ABTS^●+ radical was measured at 420 nm after 240 s reaction time and was converted to gallic acid equivalents by the use of a calibration curve (Pearson's correlation coefficient: r = 0.998) constructed with 0, 4, 10, 14, 28, 56, and 84 μM gallic acid standards rather than Trolox. Experiments were done in triplicate and repeated three times with similar results.

[3] = test system: methicillin-resistant Staphylococcus aureus and methicillin-sensitive S. aureus strains; set-up: method as in PMID 27284353; settings: MRSA and MSSA strains, previous study; cited from earlier work
[4] = test system: Candida albicans ATCC10231; assay: Broth microdilution MIC/MMC; assay type: cell-based
Procedure: (§1) The antimicrobial activity was performed against five bacterial and two fungal species. The selected microorganisms were the Gram-positive (Staphylococcus aureus ATCC25923, methicillin-resistant Staphylococcus aureus 03 (MRSA03), and methicillin-resistant Staphylococcus aureus 04 (MRSA04)) and Gram-negative (Pseudomonas aeruginosa ATCC27853 and Escherichia coli S2(1)) bacteria and yeast strains of Candida albicans ATCC10231 and Cryptococcus neoformans H99. These microorganisms were taken from our laboratory collection. The fungal and bacterial strains were conserved on Sabouraud Dextrose Agar (SDA, Conda, Madrid, Spain) and nutrient agar (NA, Conda) slants, respectively.
(§2) The antimicrobial activity was investigated by determining the minimum inhibitory concentrations (MICs), minimum bactericidal concentrations (MBC), and minimum fungicidal concentrations (MFCs). MICs of extracts/compounds were monitored using the broth microdilution method. Dimethyl sulfoxide (DMSO, Fisher Chemicals) was used to dissolve the test sample to produce a stock solution that was twofold serially diluted in Mueller-Hinton broth (MHB) for bacteria and Sabouraud Dextrose Broth (SDB) for fungi to obtain a concentration range of 4096 to 0.25 μg/mL. One hundred microliters of each concentration was introduced into a well (96-well microplate) containing 90 μL of SDB or MHB and 10 μL of inoculum (at 1 × 10^6 CFU/mL for bacteria and 1 × 10^5 spores/mL for yeasts) which were added to obtain a final concentration range of 2048 to 0.125 μg/mL. Plates were covered and incubated on the shaker at 37°C, 30°C, and 30°C during 24 h, 48 h, and 72 h for bacteria, Candida albicans, and Cryptococcus neoformans, respectively. The MICs were visually assessed after the incubation period and were considered the lowest sample concentration that inhibits the growth or the visual growth of the organism.
(§3) The positive controls were oxacillin (Sigma-Aldrich, Steinheim, Germany) for bacteria and nystatin (Sigma-Aldrich, Steinheim, Germany) for yeasts, and the negative control was broth with 20 μL of DMSO. The assay was carried out in triplicate.

[5] = test system: methicillin-resistant Staphylococcus aureus 04 (MRSA04); assay: Broth microdilution MIC/MMC; assay type: cell-based; settings: for MMC/MIC / MBC: MRSA04; for MBC / MIC: Staphylococcus aureus; for MIC: MRSA04, 24 h, 37°C, read-out: MIC
Procedure: as §1, §2, §3

[6] = test system: methicillin-resistant Staphylococcus aureus 03 (MRSA03); assay: Broth microdilution MIC/MMC; assay type: cell-based; settings: for MMC/MIC / MBC: MRSA03; for MBC / MIC: Staphylococcus aureus; for MIC: MRSA03, 24 h, 37°C, read-out: MIC
Procedure: as §1, §2, §3

[7] = test system: Escherichia coli S2(1); assay: Broth microdilution MIC/MMC; assay type: cell-based; settings: for MIC: 24 h, 37°C, read-out: MIC
Procedure: as §1, §2, §3

[8] = test system: Staphylococcus aureus ATCC25923; assay: Broth microdilution MIC/MMC; assay type: cell-based; settings: for MBC / MMC/MIC: Staphylococcus aureus ATCC25923; for MIC: Staphylococcus aureus ATCC25923, 24 h, 37°C, read-out: MIC
Procedure: as §1, §2, §3

[9] = test system: Cryptococcus neoformans H99; assay: Broth microdilution MIC/MMC; assay type: cell-based
Procedure: as §1, §2, §3

[10] = test system: Pseudomonas aeruginosa ATCC27853; assay: Broth microdilution MIC/MMC; assay type: cell-based; settings: for MBC / MMC/MIC: Pseudomonas aeruginosa ATCC27853; for MIC: Pseudomonas aeruginosa ATCC27853, 24 h, 37°C, read-out: MIC
Procedure: as §1, §2, §3

[11] = test system: tested bacteria and yeasts; assay: Broth microdilution MIC/MMC, summary over all strains; assay type: cell-based
Procedure: as §1, §2, §3

[12] = test system: red blood cells (RBCs); assay type: cell-based, Wistar rats (Rattus norvegicus)
Procedure: Wistar rats (Rattus norvegicus) aged 10–12 weeks and weighing 220 to 250 g were randomly selected from our colony. Efforts were also made to minimize animal suffering and to reduce the number of animals used in the experiment. Intraperitoneal injection of the mixture of ketamine (50 mg/kg body weight, BW) and xylazine (10 mg/kg BW) was used to anaesthetize the rats in a dose that is commonly used for operation purposes. And subsequently, the unconscious animals were quickly operated on and the whole blood (10 mL) was collected by cardiac puncture into a conical tube containing Ethylenediaminetetraacetic Acid (EDTA) as an anticoagulant. Red blood cells were harvested by centrifugation at room temperature for 10 min at 1,000 × g and were washed three times in PBS buffer^23. The haemolysis assay was evaluated as previously described.

[13] = test system: catalase; assay: Catalase activity in treated bacterial cell lysates; assay type: cell-based; settings: Staphylococcus aureus ATCC25923 and MRSA03, MIC and 1/2xMIC, 24 h
Procedure: (§4) (3) Antioxidant Enzyme Activities. For evaluation of catalase and superoxide dismutase (SOD) activities, Staphylococcus aureus ATCC25923 and MRSA03 (1.5 × 10^8 CFU/mL, 500 μL) cultures from the late exponential growth phase were treated with MIC and 1/2xMIC of the methanol extract (500 μL), compound 5 (500 μL), and oxacillin (500 μL) solutions and incubated at 37°C for 24 h. The suspension was centrifuged at 3000 rpm for 5 min to separate the supernatant. The pellet was washed twice with PBS and resuspended in 500 μL of cell lysate buffer (1 mM EDTA, 10 Mm Tris-HCl, 0.1% Triton-X-100, and 150 mM NaCl) and incubated at 37°C for 1 h. Contents were then centrifuged at 3000 rpm for 5 min, and the supernatant was collected for enzyme activity assays.
Catalase activity. This was assessed by using a kit (Sigma, catalogue no. CAT100) with a cell lysate. Briefly, 750 μL of assay buffer (50 mM) was mixed with 25 μL of 50 mM H2O2 and 10 μL of cell lysate. […] The absorbance was monitored at 520 nm, and the catalase activity was calculated based on the following equation: [Δμ moles (H2O2) × d × 100)/V × t], where Δμ moles (H2O2) is the difference in amount of H2O2 added to the reaction mixture between blank and given samples, d is the dilution of the original sample for catalase reaction, V is the sample volume in catalase reaction, and t is the reaction duration (min).

[14] = test system: Staphylococcus aureus ATCC25923; assay: Bacteriolytic assay (time-kill kinetic method, OD600); assay type: cell-based; settings: Staphylococcus aureus ATCC25923 suspension, 2xMIC, after 240 min, compared to the 0 time value
Procedure: (§5) (1) Bacteriolytic Assay. […] Full growth of bacterium in MHB was diluted 100 times and incubated at 37°C to produce an OD600 of 0.8 as a starting inoculum. Sample solutions were added to the starting bacterial suspension to give a final concentration of 2xMIC and incubated at 37°C under agitation at 150 rpm. After the incubation period corresponding to 0, 15, 30, 60, 120, and 240 min, 100 μL was pipetted from each tube and the optical density was recorded at 600 nm using the Biobase UV-Vis spectrophotometer. Corresponding dilutions of test samples were used as blanks. Oxacillin was used as a positive control, and the tubes without an extract/compound served as negative controls. All the measurements were done in triplicate and repeated three times.

[15] = test system: Pseudomonas aeruginosa ATCC27853; assay: as above; assay type: cell-based; settings: Pseudomonas aeruginosa suspension, 2xMIC, after 240 min, compared to the 0 time value
Procedure: as §5

[16] = test system: superoxide dismutase (SOD); assay: Superoxide dismutase (SOD) activity in treated bacterial cell lysates; assay type: cell-based; settings: Staphylococcus aureus ATCC25923 and MRSA03, MIC and 1/2xMIC, 24 h
Procedure: as §4
Superoxide dismutase (SOD) activity. This was determined using a kit (Sigma, catalogue no. 19160) in the cell lysate. […] The reaction mixture was incubated in the dark at 37°C for 20 min, and the absorbance was read at 450 nm on a BioTek Synergy 2 multiplate reader. The SOD activity was calculated based on the following formula: [(ABlank1–ABlank3) − (ASample–ABlank2)/(ABlank1–ABlank3) × 100], where Blank 1 contains ultrapure water, WST solution, and enzyme solution, Blank 2 contains sample solution, WST solution, and dilution buffer, and Blank 3 contains ultrapure water, WST solution, and dilution buffer.

Molecule | MMC/MIC [5] | MBC [5] [µg/mL] | MIC [5] [µg/mL] | MMC/MIC [6] | MBC [6] [µg/mL] | MIC [6] [µg/mL] | MBC [7] [µg/mL] | MMC/MIC [7] | MIC [7] [µg/mL] | MBC [8] [µg/mL] | MMC/MIC [8] | MIC [8] [µg/mL] | MBC [10] [µg/mL] | MMC/MIC [10] | MIC [10] [µg/mL] | other results
O=c1cc(-c2ccc(O)c(O)c2)oc2cc(O)cc(O)c12 [compound 3, luteolin] | 2 | 64 (≈ 224 µM) | 32 (≈ 112 µM) | 1 | 16 (≈ 55.9 µM) | 16 (≈ 55.9 µM) | 32 (≈ 112 µM) | 1 | 32 (≈ 112 µM) | 64 (≈ 224 µM) | 2 | 32 (≈ 112 µM) | 64 (≈ 224 µM) | 2 | 32 (≈ 112 µM) | DPPH free radical scavenging activity (EC50) [1]: 8.02 ± 1.16^e μg/mL; Gallic acid equivalent antioxidant capacity (GEAC) [2]: 68.30 ± 0.71^f μg/mL; MIC [3]: 62.5 µg/mL (≈ 218 µM); MFC ([4]; Candida albicans ATCC10231): 32 µg/mL (≈ 112 µM); MMC/MIC ([4]; Candida albicans ATCC10231): 2; MIC ([4]; Candida albicans ATCC10231, 48 h, 30°C, read-out: MIC): 16 µg/mL (≈ 55.9 µM); MFC ([9]; Cryptococcus neoformans H99): 16 µg/mL (≈ 55.9 µM); MMC/MIC ([9]; Cryptococcus neoformans H99): 2; MIC ([9]; Cryptococcus neoformans H99, 72 h, 30°C, read-out: MIC): 8 µg/mL (≈ 27.9 µM); antimicrobial activity class of pure compounds by cutoff points ([11]; against specific microorganism, cutoff points of ref 33): significant/moderate; MIC ([11]; read-out: MIC (range over the tested microorganisms)): 8 to 32 µg/mL (≈ 27.9 to 112 µM)
Triton X-100 |  |  |  |  |  |  |  |  |  |  |  |  |  |  |  | lysis of RBCs [12]: about 100%
Cc1onc(-c2ccccc2)c1C(=O)N[C@@H]1C(=O)N2[C@@H]1SC(C)(C)[C@@H]2C(=O)O [oxacillin, reference compound] | 1 | 8 (≈ 19.9 µM) | 8 (≈ 19.9 µM) | 2 | 8 (≈ 19.9 µM) | 4 (≈ 9.96 µM) | 32 (≈ 79.7 µM) | 2 | 16 (≈ 39.9 µM) | 1 (≈ 2.49 µM) | 1 | 1 (≈ 2.49 µM) | 2 (≈ 4.98 µM) | 1 | 2 (≈ 4.98 µM) | catalase activity vs untreated cell lysates [13]: significant concentration-dependent decreases; decline in cell turbidity [14]: 2%; decline in cell turbidity [15]: 2%; SOD activity vs untreated cell lysates [16]: significant concentration-dependent decreases; MMC/MIC (microbicidal activities) ([11]; against all the tested microorganisms): ≤ 4
